# Calls of active or inactive are those of the source.
# Legend:
# Type in all cases: functional
# [1] = molecular target: Receptor-type tyrosine-protein kinase FLT3 (Homo sapiens, UniProt P36888);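 further: FLT3 was tested as one member of a kinome-wide kinase panel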
# [2] = molecular target: BDNF/NT-3 growth factors receptor (Homo sapiens, UniProt Q16620);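 further: NTRK2 measured as one member of a broad kinome-wide kinase profiling panel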
# [3] = molecular target: Serine/threonine-protein kinase TAO1 (Homo sapiens, UniProt Q7L7X3)
# Serine/threonine-protein kinase TAO1, sequence (Q7L7X3 whole entry): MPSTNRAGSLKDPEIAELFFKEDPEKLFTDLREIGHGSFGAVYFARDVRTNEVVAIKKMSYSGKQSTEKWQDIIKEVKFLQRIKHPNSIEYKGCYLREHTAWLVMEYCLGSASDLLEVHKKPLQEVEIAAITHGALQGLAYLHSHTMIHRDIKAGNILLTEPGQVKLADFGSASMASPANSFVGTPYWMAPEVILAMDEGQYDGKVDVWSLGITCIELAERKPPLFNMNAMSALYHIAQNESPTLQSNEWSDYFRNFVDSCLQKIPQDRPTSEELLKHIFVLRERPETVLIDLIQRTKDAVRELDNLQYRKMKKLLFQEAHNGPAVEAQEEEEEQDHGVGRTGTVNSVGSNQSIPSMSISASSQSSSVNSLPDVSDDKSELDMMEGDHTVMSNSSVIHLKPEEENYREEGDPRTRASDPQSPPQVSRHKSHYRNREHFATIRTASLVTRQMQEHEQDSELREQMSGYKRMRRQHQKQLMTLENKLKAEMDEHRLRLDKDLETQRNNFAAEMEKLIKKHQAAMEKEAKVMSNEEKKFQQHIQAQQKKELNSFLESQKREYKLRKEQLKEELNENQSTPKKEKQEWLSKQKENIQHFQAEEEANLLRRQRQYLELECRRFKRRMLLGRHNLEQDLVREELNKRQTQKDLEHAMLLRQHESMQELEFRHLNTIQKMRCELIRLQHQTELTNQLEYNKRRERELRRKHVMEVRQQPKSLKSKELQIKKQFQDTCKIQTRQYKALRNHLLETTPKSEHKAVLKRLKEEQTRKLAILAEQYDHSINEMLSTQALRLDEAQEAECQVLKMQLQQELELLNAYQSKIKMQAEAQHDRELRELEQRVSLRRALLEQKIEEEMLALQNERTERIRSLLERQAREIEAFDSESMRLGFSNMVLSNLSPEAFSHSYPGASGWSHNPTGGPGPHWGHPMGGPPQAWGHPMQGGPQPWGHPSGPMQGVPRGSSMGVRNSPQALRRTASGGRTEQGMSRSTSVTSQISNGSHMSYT
# [4] = molecular target: Tyrosine-protein kinase BTK (Homo sapiens, UniProt Q06187)
# [5] = molecular target: T1, Tyrosine-protein kinase receptor TYRO3 (Homo sapiens, UniProt Q06418);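 further: TYRO3 value obtained as one member of a kinome-wide profiling panel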
# T1 sequence (Q06418 whole entry): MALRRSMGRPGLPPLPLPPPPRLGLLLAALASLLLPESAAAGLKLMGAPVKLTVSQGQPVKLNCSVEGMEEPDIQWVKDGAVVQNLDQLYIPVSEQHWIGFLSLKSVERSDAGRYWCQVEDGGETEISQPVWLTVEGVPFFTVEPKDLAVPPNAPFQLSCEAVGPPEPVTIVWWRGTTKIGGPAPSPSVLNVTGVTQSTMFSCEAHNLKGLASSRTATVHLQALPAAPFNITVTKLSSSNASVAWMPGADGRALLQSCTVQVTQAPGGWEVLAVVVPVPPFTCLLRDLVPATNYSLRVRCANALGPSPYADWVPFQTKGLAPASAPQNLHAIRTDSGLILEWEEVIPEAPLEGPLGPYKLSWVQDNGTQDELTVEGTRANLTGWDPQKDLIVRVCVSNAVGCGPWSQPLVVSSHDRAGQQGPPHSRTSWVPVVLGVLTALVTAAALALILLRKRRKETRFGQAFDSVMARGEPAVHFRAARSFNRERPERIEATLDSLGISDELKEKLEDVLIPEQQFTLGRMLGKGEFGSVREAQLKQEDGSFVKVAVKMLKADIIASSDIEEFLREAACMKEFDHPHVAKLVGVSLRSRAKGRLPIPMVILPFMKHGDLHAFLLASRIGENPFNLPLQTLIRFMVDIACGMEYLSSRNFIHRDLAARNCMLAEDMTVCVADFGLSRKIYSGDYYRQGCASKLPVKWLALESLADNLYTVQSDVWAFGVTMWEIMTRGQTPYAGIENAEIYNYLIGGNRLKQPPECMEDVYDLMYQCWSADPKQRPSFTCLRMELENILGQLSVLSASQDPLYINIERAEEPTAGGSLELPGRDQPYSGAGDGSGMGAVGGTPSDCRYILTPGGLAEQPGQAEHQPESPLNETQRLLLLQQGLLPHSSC
# [6] = molecular target: Death-associated protein kinase 3 (Homo sapiens, UniProt O43293);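 further: measured as one member of a kinome-wide profiling panel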
# Death-associated protein kinase 3, sequence (O43293 whole entry): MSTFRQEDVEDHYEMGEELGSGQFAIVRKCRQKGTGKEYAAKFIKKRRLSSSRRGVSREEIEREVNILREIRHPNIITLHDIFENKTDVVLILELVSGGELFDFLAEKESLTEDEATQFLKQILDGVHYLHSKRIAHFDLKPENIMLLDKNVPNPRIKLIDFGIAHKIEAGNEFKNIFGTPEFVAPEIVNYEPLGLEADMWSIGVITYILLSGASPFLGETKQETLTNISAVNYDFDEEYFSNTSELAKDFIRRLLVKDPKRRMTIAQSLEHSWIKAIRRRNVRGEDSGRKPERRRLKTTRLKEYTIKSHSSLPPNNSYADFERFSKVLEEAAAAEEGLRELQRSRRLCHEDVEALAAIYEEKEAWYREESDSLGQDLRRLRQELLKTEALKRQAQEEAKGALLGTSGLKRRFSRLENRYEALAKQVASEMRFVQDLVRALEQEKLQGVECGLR
# [7] = molecular target: Mitogen-activated protein kinase 9 (Homo sapiens, UniProt P45984);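 further: value from a kinome panel profiling assay, MAPK9 panel entry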
# [8] = molecular target: 5'-AMP-activated protein kinase catalytic subunit alpha-1 (Homo sapiens, UniProt Q13131)
# 5'-AMP-activated protein kinase catalytic subunit alpha-1, sequence (Q13131 whole entry): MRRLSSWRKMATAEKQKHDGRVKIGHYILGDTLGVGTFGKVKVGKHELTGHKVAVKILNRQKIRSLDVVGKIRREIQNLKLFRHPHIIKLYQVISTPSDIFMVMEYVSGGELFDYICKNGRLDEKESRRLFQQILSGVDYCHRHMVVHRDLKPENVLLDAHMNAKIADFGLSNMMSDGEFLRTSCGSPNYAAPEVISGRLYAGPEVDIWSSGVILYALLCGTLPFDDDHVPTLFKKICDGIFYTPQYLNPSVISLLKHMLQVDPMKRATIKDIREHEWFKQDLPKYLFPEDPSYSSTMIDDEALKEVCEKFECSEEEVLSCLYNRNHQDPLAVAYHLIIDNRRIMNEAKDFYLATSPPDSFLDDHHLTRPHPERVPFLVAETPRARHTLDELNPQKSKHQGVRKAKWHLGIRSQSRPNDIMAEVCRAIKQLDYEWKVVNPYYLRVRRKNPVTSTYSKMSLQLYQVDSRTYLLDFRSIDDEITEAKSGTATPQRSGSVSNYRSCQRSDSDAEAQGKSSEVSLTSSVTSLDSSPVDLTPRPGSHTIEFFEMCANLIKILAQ
# [9] = molecular target: Tyrosine-protein kinase ABL1 (Homo sapiens, UniProt P00519)
# Tyrosine-protein kinase ABL1, sequence (P00519 whole entry): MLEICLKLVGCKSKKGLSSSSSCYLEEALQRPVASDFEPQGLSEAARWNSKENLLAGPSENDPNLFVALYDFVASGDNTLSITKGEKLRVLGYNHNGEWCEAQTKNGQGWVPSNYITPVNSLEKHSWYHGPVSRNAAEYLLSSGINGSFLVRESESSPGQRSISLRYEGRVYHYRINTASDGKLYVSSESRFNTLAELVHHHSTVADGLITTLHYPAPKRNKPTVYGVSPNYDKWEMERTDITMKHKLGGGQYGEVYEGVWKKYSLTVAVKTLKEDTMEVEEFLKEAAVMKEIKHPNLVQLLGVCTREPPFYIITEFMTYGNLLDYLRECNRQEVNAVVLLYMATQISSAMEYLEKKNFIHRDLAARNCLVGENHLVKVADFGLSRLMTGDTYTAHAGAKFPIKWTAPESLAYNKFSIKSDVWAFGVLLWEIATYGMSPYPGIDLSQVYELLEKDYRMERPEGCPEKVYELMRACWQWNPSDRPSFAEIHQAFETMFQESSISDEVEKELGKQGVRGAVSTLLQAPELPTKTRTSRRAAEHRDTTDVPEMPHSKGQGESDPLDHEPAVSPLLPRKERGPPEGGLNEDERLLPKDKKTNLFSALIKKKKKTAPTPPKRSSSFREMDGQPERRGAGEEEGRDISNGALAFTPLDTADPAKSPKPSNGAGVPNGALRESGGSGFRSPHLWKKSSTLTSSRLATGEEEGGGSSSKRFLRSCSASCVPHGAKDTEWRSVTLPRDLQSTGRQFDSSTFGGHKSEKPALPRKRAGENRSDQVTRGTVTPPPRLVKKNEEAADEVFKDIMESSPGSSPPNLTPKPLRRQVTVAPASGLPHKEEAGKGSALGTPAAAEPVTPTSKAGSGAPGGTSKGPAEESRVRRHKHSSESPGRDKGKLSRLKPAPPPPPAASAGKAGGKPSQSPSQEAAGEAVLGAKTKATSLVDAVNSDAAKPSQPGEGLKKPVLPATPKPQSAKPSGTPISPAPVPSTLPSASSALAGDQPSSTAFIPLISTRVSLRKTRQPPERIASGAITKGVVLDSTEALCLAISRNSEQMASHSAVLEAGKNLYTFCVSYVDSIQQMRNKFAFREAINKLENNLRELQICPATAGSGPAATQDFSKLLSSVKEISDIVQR
# [10] = molecular target: High affinity nerve growth factor receptor (Homo sapiens, UniProt P04629);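 further: NTRK1 tested as one member of a kinome-wide profiling panel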
# [11] = molecular target: Cyclin-dependent kinase 5 (Homo sapiens, UniProt Q00535);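 further: CDK5 measured as one member of a kinase profiling panel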
# Cyclin-dependent kinase 5, sequence (Q00535 whole entry): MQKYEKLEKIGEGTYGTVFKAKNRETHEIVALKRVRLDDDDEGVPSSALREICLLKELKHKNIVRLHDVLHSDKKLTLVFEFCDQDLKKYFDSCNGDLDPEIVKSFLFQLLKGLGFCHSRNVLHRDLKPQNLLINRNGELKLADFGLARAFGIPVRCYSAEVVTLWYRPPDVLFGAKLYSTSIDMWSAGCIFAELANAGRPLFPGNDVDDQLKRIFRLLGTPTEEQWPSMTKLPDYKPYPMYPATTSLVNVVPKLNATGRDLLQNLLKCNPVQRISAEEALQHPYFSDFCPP
# Aurora kinase B = Aurora kinase B (Homo sapiens, UniProt Q96GD4)
# Aurora kinase B, sequence (Q96GD4 whole entry): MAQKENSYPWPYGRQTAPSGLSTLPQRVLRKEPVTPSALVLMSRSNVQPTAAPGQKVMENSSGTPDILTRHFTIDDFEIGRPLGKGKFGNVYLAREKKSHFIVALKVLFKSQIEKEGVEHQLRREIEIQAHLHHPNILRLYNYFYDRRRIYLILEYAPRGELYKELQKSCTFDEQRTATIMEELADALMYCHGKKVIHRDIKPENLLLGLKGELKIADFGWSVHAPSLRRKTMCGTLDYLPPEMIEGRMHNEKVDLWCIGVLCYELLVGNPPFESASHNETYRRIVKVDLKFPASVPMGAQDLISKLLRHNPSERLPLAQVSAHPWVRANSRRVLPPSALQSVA
# [12] = molecular target: Cyclin-dependent kinase 8 (Homo sapiens, UniProt P49336); assay: Navigating the Kinome. Panel member name: CDK8
# [13] = molecular target: Cyclin-dependent kinase 7 (Homo sapiens, UniProt P50613);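 further: value comes from a kinome-wide kinase profiling panel in which CDK7 is one member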
# Cyclin-dependent kinase 7, sequence (P50613 whole entry): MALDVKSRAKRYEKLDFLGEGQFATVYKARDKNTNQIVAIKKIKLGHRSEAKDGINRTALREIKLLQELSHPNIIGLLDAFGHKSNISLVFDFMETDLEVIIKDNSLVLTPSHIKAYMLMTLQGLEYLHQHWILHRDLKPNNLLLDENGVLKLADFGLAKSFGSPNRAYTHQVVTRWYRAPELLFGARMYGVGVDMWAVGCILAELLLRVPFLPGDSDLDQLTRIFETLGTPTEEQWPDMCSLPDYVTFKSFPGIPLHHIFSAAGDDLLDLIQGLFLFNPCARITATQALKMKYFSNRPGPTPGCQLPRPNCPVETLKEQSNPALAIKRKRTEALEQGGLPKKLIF
# [14] = molecular target: Tyrosine-protein kinase JAK2 (Homo sapiens, UniProt O60674);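 further: JAK2 tested as one member of a kinase panel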
# [15] = molecular target: Mitogen-activated protein kinase kinase kinase kinase 2 (Homo sapiens, UniProt Q12851);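 further: measured as one member of a kinome-wide kinase panel, with MAP4K2 as the panel entry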
# [16] = molecular target: T2, Serine/threonine-protein kinase Chk1 (Homo sapiens, UniProt O14757);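 further: measured as one member of a kinome-wide kinase profiling panel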
# T2 sequence (O14757 whole entry): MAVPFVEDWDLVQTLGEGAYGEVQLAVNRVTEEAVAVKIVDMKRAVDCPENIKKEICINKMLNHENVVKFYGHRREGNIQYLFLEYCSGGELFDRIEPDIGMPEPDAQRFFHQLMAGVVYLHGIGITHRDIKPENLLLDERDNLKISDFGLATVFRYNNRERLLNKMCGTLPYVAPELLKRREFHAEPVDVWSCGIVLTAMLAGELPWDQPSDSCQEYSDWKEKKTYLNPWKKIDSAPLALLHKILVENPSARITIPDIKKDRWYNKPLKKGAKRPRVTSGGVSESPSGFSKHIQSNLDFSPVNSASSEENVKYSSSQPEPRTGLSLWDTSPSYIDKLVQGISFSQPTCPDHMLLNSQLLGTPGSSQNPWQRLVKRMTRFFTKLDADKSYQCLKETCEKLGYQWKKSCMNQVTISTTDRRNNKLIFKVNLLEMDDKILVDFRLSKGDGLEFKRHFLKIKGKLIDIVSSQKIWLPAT
# [17] = molecular target: Tyrosine-protein kinase Lck (Homo sapiens, UniProt P06239);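 further: lck was assayed as one member of a kinase panel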
# [18] = molecular target: Cyclin-dependent kinase 9 (Homo sapiens, UniProt P50750);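 further: value from the CDK9 entry of a kinome-spanning kinase panel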
# Aurora kinase A = Aurora kinase A (Homo sapiens, UniProt O14965);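 further: value from the Navigating the Kinome kinase panel profiling, panel entry STK6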
# Aurora kinase A, sequence (O14965 whole entry): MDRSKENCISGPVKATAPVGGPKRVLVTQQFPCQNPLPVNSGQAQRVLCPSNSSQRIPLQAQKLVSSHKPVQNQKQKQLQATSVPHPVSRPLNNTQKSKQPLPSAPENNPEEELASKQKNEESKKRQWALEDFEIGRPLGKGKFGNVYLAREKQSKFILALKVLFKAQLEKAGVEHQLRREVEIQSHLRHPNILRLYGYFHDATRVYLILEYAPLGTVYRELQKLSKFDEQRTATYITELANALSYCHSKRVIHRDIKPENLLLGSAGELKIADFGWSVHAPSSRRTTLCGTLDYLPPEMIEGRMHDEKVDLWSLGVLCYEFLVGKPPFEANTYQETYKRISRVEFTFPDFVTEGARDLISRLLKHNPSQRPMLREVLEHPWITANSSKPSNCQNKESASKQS
# [19] = molecular target: Fibroblast growth factor receptor 1 (Homo sapiens, UniProt P11362)
# [20] = molecular target: Tyrosine-protein kinase Fyn (Homo sapiens, UniProt P06241)
# [21] = molecular target: Ribosomal protein S6 kinase alpha-3 (Homo sapiens, UniProt P51812);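 further: measured within a kinome-wide profiling panel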
# [22] = molecular target: Mitogen-activated protein kinase 8 (Homo sapiens, UniProt P45983);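 further: value comes from one member of a kinome-wide kinase profiling panel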
# [23] = molecular target: Glycogen synthase kinase-3 beta (Homo sapiens, UniProt P49841);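 further: value comes from a broad kinome profiling panel, with GSK3B as the panel member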
# [24] = molecular target: ALK tyrosine kinase receptor (Homo sapiens, UniProt Q9UM73);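 further: ALK tested as one member of a kinase panel screen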
# [25] = molecular target: Vascular endothelial growth factor receptor 2 (Homo sapiens, UniProt P35968)
# [26] = molecular target: Serine/threonine-protein kinase pim-1 (Homo sapiens, UniProt P11309)
# Serine/threonine-protein kinase pim-1, sequence (P11309 whole entry): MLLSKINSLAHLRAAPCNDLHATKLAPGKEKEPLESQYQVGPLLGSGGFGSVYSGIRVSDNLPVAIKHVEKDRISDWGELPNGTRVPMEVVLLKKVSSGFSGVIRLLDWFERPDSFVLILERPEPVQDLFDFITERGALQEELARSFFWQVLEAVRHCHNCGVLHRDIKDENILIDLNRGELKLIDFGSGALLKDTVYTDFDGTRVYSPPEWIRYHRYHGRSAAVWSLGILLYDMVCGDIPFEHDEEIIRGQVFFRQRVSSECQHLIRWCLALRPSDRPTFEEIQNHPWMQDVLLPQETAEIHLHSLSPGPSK
SMILES,Ki [1],Ki [2],Ki [3],Ki [4],Ki [5],Ki [6],Ki [7],Ki [8],Ki [9],Ki [10],Ki [11],Ki (Aurora kinase B),Ki [12],Ki [13],Ki [14],Ki [15],Ki [16],Ki [17],Ki [18],Ki (Aurora kinase A),further results
Cc1n[nH]c2ccc(-c3cncc(OCC(N)Cc4ccc(Cl)c(Cl)c4)c3)cc12 (stereo unspecified),100 nM (active),> 5.01 µM (inactive),0.631 µM (active),> 1.26 µM (inactive),> 2 µM (inactive),126 nM (active),3.16 µM (active),31.6 nM (active),> 631 nM (inactive),> 2.51 µM (inactive),12.6 nM (active),251 nM (active),12.6 nM (active),20 nM (active),> 1.58 µM (inactive),63.1 nM (active),7.94 µM (active),> 2.51 µM (inactive),200 nM (active),1 µM (active),Ki [19]: > 5.01 µM (inactive); Ki [20]: > 0.794 µM (inactive); Ki [21]: 15.8 nM (active); Ki [22]: 2.51 µM (active); Ki [23]: 31.6 nM (active); Ki [24]: 0.794 µM (active); Ki [25]: > 7.94 µM (inactive); Ki [26]: 0.00631 µM (active)
[2H]C([2H])([2H])Oc1cccc(C(C)NC(=O)c2sc(-c3ccncc3)nc2C)c1 (stereo unspecified),> 3160 nM (inactive),> 3.98 µM (inactive),> 6.31 µM (inactive),> 6.31 µM (inactive),> 3.16 µM (inactive),> 5010 nM (inactive),> 3.98 µM (inactive),> 3160 nM (inactive),> 2510 nM (inactive),> 3.16 µM (inactive),> 3160 nM (inactive),> 3980 nM (inactive),> 3980 nM (inactive),> 3980 nM (inactive),> 2.51 µM (inactive),> 2510 nM (inactive),> 3.16 µM (inactive),> 6.31 µM (inactive),> 1580 nM (inactive),> 1.58 µM (inactive),Ki [19]: > 3.98 µM (inactive); Ki [20]: > 6.31 µM (inactive); Ki [21]: > 3980 nM (inactive); Ki [22]: > 5.01 µM (inactive); Ki [23]: 2000 nM (active); Ki [24]: > 6.31 µM (inactive); Ki [25]: > 2.51 µM (inactive); Ki [26]: > 6.31 µM (inactive)

# Reference: ChEMBL document CHEMBL1201862, “PubChem BioAssay data set” (2004)
